Results from publication PMC2774768 (Journal of the American Chemical Society, 2009).

Tested on: HeLa cells
Test: Confocal microscopy of peptide uptake and localization
Format: cell-based
Conditions: 1.0 μM peptide, 1 h, serum-free DMEM with 25 mM HEPES pH 7.3, fixed

Substance | Uptake of peptide at 4 °C, fixed cells (confocal)
AcK(5-Fam)AKKSRRC(Ger)VLL [compound 4] | still able to enter the cells
AcK(5-Fam)C(Acm)KKSRRC(Ger)-NH2 [2a] | substantial uptake of the peptide
